Results as given in PubChem BioAssay (NCI).
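Grown in 96-well plates, cells were treated for 48 hours with each compound at five concentrations. Insufficient inhibition: endpoint recorded as highest concentration tested. TGI: total growth inhibition.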

Assays:
Experiment in all cases: NCI tumour cell line growth inhibition, 48 h
UO-31 renal = test system: UO-31 renal
ACHN renal = test system: ACHN renal
BT-549 breast = test system: BT-549 breast
SK-MEL-28 melanoma = test system: SK-MEL-28 melanoma
SR leukemia = test system: SR leukemia
HS 578T breast = test system: HS 578T breast
XF 498 CNS = test system: XF 498 CNS
HOP-62 NSCLC = test system: HOP-62 NSCLC
KM20L2 colon = test system: KM20L2 colon
CAKI-1 renal = test system: CAKI-1 renal
UACC-62 melanoma = test system: UACC-62 melanoma
M14 melanoma = test system: M14 melanoma
LXFL 529 NSCLC = test system: LXFL 529 NSCLC
M19-MEL melanoma = test system: M19-MEL melanoma
MCF7 breast = test system: MCF7 breast
COLO 205 colon = test system: COLO 205 colon
HCT-116 colon = test system: HCT-116 colon
786-0 renal = test system: 786-0 renal
HOP-18 NSCLC = test system: HOP-18 NSCLC
EKVX NSCLC = test system: EKVX NSCLC
RPMI-8226 leukemia = test system: RPMI-8226 leukemia
MALME-3M melanoma = test system: MALME-3M melanoma
SK-OV-3 ovarian = test system: SK-OV-3 ovarian
HCC-2998 colon = test system: HCC-2998 colon
NCI-H226 lung = test system: NCI-H226 lung
K-562 leukemia = test system: K-562 leukemia
OVCAR-5 ovarian = test system: OVCAR-5 ovarian
KM12 colon = test system: KM12 colon
SNB-75 CNS = test system: SNB-75 CNS
A549 NSCLC = test system: A549 NSCLC
SK-MEL-2 melanoma = test system: SK-MEL-2 melanoma
HCT-15 colon = test system: HCT-15 colon
SNB-19 CNS = test system: SNB-19 CNS
RXF-631 renal = test system: RXF-631 renal
MDA-MB-435 = test system: MDA-MB-435
DU-145 prostate = test system: DU-145 prostate
SK-MEL-5 melanoma = test system: SK-MEL-5 melanoma
MDA-MB-231 breast = test system: MDA-MB-231 breast
UACC-257 melanoma = test system: UACC-257 melanoma
RXF 393 renal = test system: RXF 393 renal
IGROV1 ovarian = test system: IGROV1 ovarian
LOX IMVI melanoma = test system: LOX IMVI melanoma
A498 renal = test system: A498 renal
NCI-H460 lung = test system: NCI-H460 lung
PC-3 prostate = test system: PC-3 prostate
TK-10 renal = test system: TK-10 renal
OVCAR-8 ovarian = test system: OVCAR-8 ovarian
SF-295 CNS = test system: SF-295 CNS
MDA-N = test system: MDA-N
NCI-H522 lung = test system: NCI-H522 lung
SF-268 CNS = test system: SF-268 CNS
U251 CNS = test system: U251 CNS
HT29 colon = test system: HT29 colon
HOP-92 NSCLC = test system: HOP-92 NSCLC
DLD-1 colon = test system: DLD-1 colon
SF-539 CNS = test system: SF-539 CNS
OVCAR-4 ovarian = test system: OVCAR-4 ovarian
MOLT-4 leukemia = test system: MOLT-4 leukemia
NCI-H23 lung = test system: NCI-H23 lung
OVCAR-3 ovarian = test system: OVCAR-3 ovarian
DMS 273 small cell lung = test system: DMS 273 small cell lung
SN12C renal = test system: SN12C renal
CCRF-CEM leukemia = test system: CCRF-CEM leukemia
SW-620 colon = test system: SW-620 colon
SNB-78 CNS = test system: SNB-78 CNS
DMS 114 small cell lung = test system: DMS 114 small cell lung
HL-60(TB) leukemia = test system: HL-60(TB) leukemia
NCI/ADR-RES ovarian = test system: NCI/ADR-RES ovarian
SN12K1 renal = test system: SN12K1 renal

What does the source list for `Cc1cccc(C)c1NC(=O)C(C#N)C1=C(Cl)C(=O)c2ccccc2C1=O` (configuration not stated)?
TGI (UO-31 renal): 26.6 µM; TGI (ACHN renal): 28.8 µM; TGI (BT-549 breast): 28.2 µM; TGI (SK-MEL-28 melanoma): 38.1 µM; TGI (SR leukemia): > 45.8 µM; TGI (HS 578T breast): 52.1 µM; TGI (XF 498 CNS): 28.9 µM; TGI (HOP-62 NSCLC): 32.9 µM; TGI (KM20L2 colon): 50.7 µM; TGI (CAKI-1 renal): 38.1 µM; TGI (UACC-62 melanoma): 33.4 µM; TGI (M14 melanoma): 21.4 µM; TGI (LXFL 529 NSCLC): 30 µM; TGI (M19-MEL melanoma): 16.6 µM; TGI (MCF7 breast): 46.2 µM; TGI (COLO 205 colon): 10.2 µM; TGI (HCT-116 colon): 30.6 µM; TGI (786-0 renal): 45.7 µM; TGI (HOP-18 NSCLC): 25.3 µM; TGI (EKVX NSCLC): 38.5 µM; TGI (RPMI-8226 leukemia): 53.6 µM; TGI (MALME-3M melanoma): 30.4 µM; TGI (SK-OV-3 ovarian): 43.3 µM; TGI (HCC-2998 colon): 32.2 µM; TGI (NCI-H226 lung): 17.4 µM; TGI (K-562 leukemia): > 36.4 µM; TGI (OVCAR-5 ovarian): 37.4 µM; TGI (KM12 colon): 34.5 µM; TGI (SNB-75 CNS): 29.2 µM; TGI (A549 NSCLC): 41.6 µM; TGI (SK-MEL-2 melanoma): 29.2 µM; TGI (HCT-15 colon): 36 µM; TGI (SNB-19 CNS): 32.4 µM; TGI (RXF-631 renal): 43 µM; TGI (MDA-MB-435): 34.3 µM; TGI (DU-145 prostate): 28.1 µM; TGI (SK-MEL-5 melanoma): 26.7 µM; TGI (MDA-MB-231 breast): 49.7 µM; TGI (UACC-257 melanoma): 21.6 µM; TGI (RXF 393 renal): > 47.8 µM; TGI (IGROV1 ovarian): 31.8 µM; TGI (LOX IMVI melanoma): 43.8 µM; TGI (A498 renal): 29.3 µM; TGI (NCI-H460 lung): 55.4 µM; TGI (PC-3 prostate): 28.9 µM; TGI (TK-10 renal): 33.7 µM; TGI (OVCAR-8 ovarian): 48.5 µM; TGI (SF-295 CNS): 32.5 µM; TGI (MDA-N): 28.6 µM; TGI (NCI-H522 lung): 26.2 µM; TGI (SF-268 CNS): 31.6 µM; TGI (U251 CNS): 42.7 µM; TGI (HT29 colon): 39.8 µM; TGI (HOP-92 NSCLC): 22.4 µM; TGI (DLD-1 colon): 30.1 µM; TGI (SF-539 CNS): 48.1 µM; TGI (OVCAR-4 ovarian): 30.3 µM; TGI (MOLT-4 leukemia): 26.9 µM; TGI (NCI-H23 lung): 44 µM; TGI (OVCAR-3 ovarian): 26.9 µM; TGI (DMS 273 small cell lung): > 100 µM; TGI (SN12C renal): 32 µM; TGI (CCRF-CEM leukemia): 35.1 µM; TGI (SW-620 colon): 34.3 µM; TGI (SNB-78 CNS): 56.1 µM; TGI (DMS 114 small cell lung): 41.8 µM; TGI (HL-60(TB) leukemia): 38.2 µM

`CN1CCc2[nH]c3ccccc3c2C1` was tested. Which TGI (UO-31 renal) did it give?
Its TGI is over 100 µM.

And the TGI (SK-MEL-28 melanoma)?
The TGI was over 100 µM.

What about the TGI (XF 498 CNS) of the same molecule?
Its TGI is over 100 µM.

What about the TGI (HOP-62 NSCLC) of the same molecule?
Its TGI is over 100 µM.

What about the TGI (KM20L2 colon) of the same molecule?
Its TGI is over 100 µM.

And the TGI (CAKI-1 renal)?
The TGI was over 100 µM.

What about the TGI (UACC-62 melanoma) of the same molecule?
The TGI was over 100 µM.

What about the TGI (M19-MEL melanoma) of the same molecule?
The TGI was over 100 µM.

What about the TGI (MCF7 breast) of the same molecule?
Its TGI is over 100 µM.

And the TGI (COLO 205 colon)?
Its TGI is over 100 µM.

What about the TGI (HCT-116 colon) of the same molecule?
The TGI was over 100 µM.

And the TGI (HOP-18 NSCLC)?
The TGI was over 100 µM.

And the TGI (EKVX NSCLC)?
Its TGI is over 100 µM.

And the TGI (RPMI-8226 leukemia)?
The TGI was over 100 µM.

What about the TGI (MALME-3M melanoma) of the same molecule?
Its TGI is over 100 µM.

And the TGI (SK-OV-3 ovarian)?
The TGI was over 100 µM.

What about the TGI (HCC-2998 colon) of the same molecule?
Its TGI is over 100 µM.

And the TGI (NCI-H226 lung)?
Its TGI is over 100 µM.

And the TGI (K-562 leukemia)?
The TGI was over 100 µM.

And the TGI (OVCAR-5 ovarian)?
The TGI was over 100 µM.

What about the TGI (KM12 colon) of the same molecule?
The TGI was over 100 µM.

And the TGI (NCI/ADR-RES ovarian)?
Its TGI is over 100 µM.

And the TGI (SNB-75 CNS)?
Its TGI is over 100 µM.

What about the TGI (A549 NSCLC) of the same molecule?
Its TGI is over 100 µM.

What about the TGI (SK-MEL-2 melanoma) of the same molecule?
Its TGI is over 100 µM.

And the TGI (HCT-15 colon)?
The TGI was over 100 µM.

What about the TGI (SNB-19 CNS) of the same molecule?
Its TGI is over 100 µM.

What about the TGI (SK-MEL-5 melanoma) of the same molecule?
Its TGI is over 100 µM.

What about the TGI (UACC-257 melanoma) of the same molecule?
The TGI was over 100 µM.

What about the TGI (RXF 393 renal) of the same molecule?
Its TGI is over 100 µM.

What about the TGI (IGROV1 ovarian) of the same molecule?
The TGI was over 100 µM.

What about the TGI (LOX IMVI melanoma) of the same molecule?
Its TGI is over 100 µM.

And the TGI (A498 renal)?
Its TGI is over 100 µM.

What about the TGI (NCI-H460 lung) of the same molecule?
Its TGI is over 100 µM.

And the TGI (OVCAR-8 ovarian)?
The TGI was over 100 µM.

And the TGI (SF-295 CNS)?
Its TGI is over 100 µM.

And the TGI (NCI-H522 lung)?
Its TGI is over 100 µM.

And the TGI (SF-268 CNS)?
Its TGI is over 100 µM.

What about the TGI (U251 CNS) of the same molecule?
The TGI was over 100 µM.

What about the TGI (HT29 colon) of the same molecule?
Its TGI is over 100 µM.

And the TGI (HOP-92 NSCLC)?
Its TGI is over 100 µM.

What about the TGI (DLD-1 colon) of the same molecule?
The TGI was over 100 µM.

And the TGI (SF-539 CNS)?
The TGI was over 100 µM.

And the TGI (OVCAR-4 ovarian)?
Its TGI is over 100 µM.

And the TGI (MOLT-4 leukemia)?
The TGI was over 100 µM.

And the TGI (NCI-H23 lung)?
Its TGI is over 100 µM.

And the TGI (OVCAR-3 ovarian)?
Its TGI is over 100 µM.

What about the TGI (DMS 273 small cell lung) of the same molecule?
The TGI was over 100 µM.

And the TGI (SN12K1 renal)?
Its TGI is over 100 µM.

And the TGI (SN12C renal)?
Its TGI is over 100 µM.

And the TGI (CCRF-CEM leukemia)?
Its TGI is over 100 µM.

And the TGI (SW-620 colon)?
Its TGI is over 100 µM.

What about the TGI (SNB-78 CNS) of the same molecule?
The TGI was over 100 µM.

And the TGI (DMS 114 small cell lung)?
Its TGI is over 100 µM.

And the TGI (HL-60(TB) leukemia)?
Its TGI is over 100 µM.
